Test results as given in PMC6297231 (Nature Communications, 2018).
Where two headings read alike, the source gives them in different places.

What was measured:
[1] = system: MOLP-8 cells; test: Kinetics of apoptosis and cell death markers; format: cell-based
Experimental: Data presented in Fig. 4b was calculated as follows:4 TMRE:(TMREnegativesample-TMREnegativeDMSO)∕(TMREnegative500nMAZD5991@24h-TMREnegativeDMSO)×100 5 Annexin V : (Annexin V positive sample) - Annexin positive DMSO∕(Annexin positive 500nM AZD5991@24h) - Annexin positive DMSO × 100 6 7AAD : (7AAD positive sample) - 7AAD positive 500nM AZD5991@0.5h∕(7AAD positive 500nM AZD5991@16h) - 7AAD positive 500nM AZD5991@0.5h × 100

[2] = system: murine Eµ-Myc lymphoma tumors; test: GFP-labeled Eµ-Myc lymphoma model; format: in vivo, mice; settings: 100 mg kg^−1 on day 3 and day 10 post-transplantation
From the text: Eµ-Myc: These studies complied with all ethical regulations in accordance with the guidelines established by the Institutional Animal Experimentation Ethics Committee, Peter MacCallum Cancer Center. Non-irradiated C57BL/6 mice between 6 and 8 weeks old were transplanted by tail vein injection with 100,000 GFP-labeled Eμ-Myc lymphoma cells[39] harvested from lymph nodes of a syngeneic mouse. Treatment started 3 days after implantation. AZD5991 and vehicle were formulated and administered as mentioned above. Peripheral blood was collected by retro-orbital sampling 11 days post-transplantation and GFP-expressing leukemic cells assessed by flow cytometry using a BD FACSCanto II cytometer and data analyzed using Flowlogic software. Gating strategy is shown in Supplementary Figure 8.

[3] = system: KMS12BM; test: Cell viability assay; format: cell-based; settings: Homo sapiens, KMS-12-BM, 24 h; KMS12BM (MM); read-out: AZD5991 24h GI50
[4] = system: KMS12PE; test: Cell viability assay; format: cell-based; settings: Homo sapiens, KMS-12-PE, 24 h; KMS12PE (MM); read-out: AZD5991 24h GI50
Experimental: (§1) Cells were plated at 3000 cells/well in 384-well white plates in corresponding cell growth media. […] Caspase-3/7 activation was subsequently determined using a Caspase-Glo 3/7 Reagent (Promega) and viability was assayed using the CellTiter-Glo Reagent (Promega) as described in manufacturer’s instructions. Dose–response curves for caspase-3/7 activation and viability were plotted and analyzed (including EC50 and GI50 determination) using GraphPad Prism.

[5] = system: Nomo1; test: Cell viability assay; format: cell-based; settings: Homo sapiens, NOMO-1, 24 h; Nomo1 (AML); read-out: AZD5991 24h GI50
Experimental: as §1

[6] = system: Kasumi3; test: Cell viability assay; format: cell-based; settings: Kasumi-3, 24 h; Kasumi3 (AML); read-out: AZD5991 24h GI50
Experimental: as §1

[7] = system: MONOMAC6; test: Cell viability assay; format: cell-based; settings: Homo sapiens, MONO-MAC-6, 24 h; MONOMAC6 (AML); read-out: AZD5991 24h GI50
Experimental: as §1

[8] = system: Bjab; test: Cell viability assay; format: cell-based; settings: Homo sapiens, 24 h; Bjab (NHL); read-out: AZD5991 24h GI50
Experimental: as §1

[9] = system: DOHH2; test: Cell viability assay; format: cell-based; settings: Homo sapiens, DOHH-2, 24 h; DOHH2 (NHL); read-out: AZD5991 24h GI50
Experimental: as §1

[10] = system: OCILY1; test: Cell viability assay; format: cell-based; settings: Homo sapiens, OCI-Ly1, 24 h; OCILY1 (NHL); read-out: AZD5991 24h GI50
Experimental: as §1

[11] = system: OCILY3; test: Cell viability assay; format: cell-based; settings: Homo sapiens, OCI-Ly3, 24 h; OCILY3 (NHL); read-out: AZD5991 24h GI50
Experimental: as §1

[12] = system: WSUNHL; test: Cell viability assay; format: cell-based; settings: Homo sapiens, WSU-NHL, 24 h, read-out: AZD5991 24h GI50
Experimental: as §1

[13] = system: DMS114; test: Cell viability assay; format: cell-based; settings: Homo sapiens, DMS-114, 24 h; DMS114 (Lung); read-out: AZD5991 24h GI50
Experimental: as §1

[14] = system: LK2; test: Cell viability assay; format: cell-based; settings: Homo sapiens, LK-2, 24 h; LK2 (Lung); read-out: AZD5991 24h GI50
Experimental: as §1

[15] = system: A2058; test: Cell viability assay; format: cell-based; settings: Homo sapiens, 24 h; A2058 (Skin); read-out: AZD5991 24h GI50
Experimental: as §1

[16] = system: MALME3M; test: Cell viability assay; format: cell-based; settings: Homo sapiens, Malme-3M, 24 h; MALME3M (Skin); read-out: AZD5991 24h GI50
Experimental: as §1

[17] = system: A253; test: Cell viability assay; format: cell-based; settings: Homo sapiens, 24 h; A253 (Others); read-out: AZD5991 24h GI50
Experimental: as §1

[18] = system: OE21; test: Cell viability assay; format: cell-based; settings: 24 h; OE21 (Others); read-out: AZD5991 24h GI50
Experimental: as §1

[19] = system: U2OS; test: Cell viability assay; format: cell-based; settings: Homo sapiens, 24 h; U2OS (Others); read-out: AZD5991 24h GI50
Experimental: as §1

[20] = system: MOLM13; test: Caspase-3/7 activation assay; format: cell-based; settings: Homo sapiens, MOLM-13, 6 h
Experimental: as §1

[21] = system: HEL92.1.7; test: Caspase-3/7 activation assay; format: cell-based; settings: Homo sapiens, HEL 92.1.7, 6 h
Experimental: as §1

Cc1c2c(nn1C)CSCc1cc(n(C)n1)CSc1cc(c3ccccc3c1)OCCCc1c(C(=O)O)n(C)c3c-2c(Cl)ccc13 (atropisomer, axis not shown; (Ra)) [(Ra)-7]
time to loss of ATP and disruption of the cell membrane [1]: less than 24 h | time to maximum increase in MOMP, caspase-3/7 activation and phosphatidyl-serine exposure ([1]; MOLP-8 cells, 500 nM): less than 2 h | survival vs. vehicle control group [2]: prolonged survival | leukemic cells in peripheral blood ([2]; day 11): depletion of leukemic cells from peripheral blood | GI50 [3]: 15 nM | GI50 [4]: 329 nM | GI50 [5]: 21 nM | GI50 [6]: 172 nM | GI50 [7]: 226 nM | GI50 [8]: 16 nM | GI50 [9]: 65 nM | GI50 [10]: 561 nM | GI50 [11]: 6190 nM | GI50 [12]: 221 nM | GI50 [13]: 219 nM | GI50 [14]: > 30000 nM | GI50 [15]: 765 nM | GI50 [16]: 19500 nM | GI50 [17]: > 30000 nM | GI50 [18]: > 30000 nM | GI50 [19]: 20600 nM | EC50 ([20]; read-out: 6h caspase EC50, MOLM13, single agent): 108 nM | EC50 ([20]; read-out: AZD5991 6h EC50, MOLM13 (AML), caspase 3/7 activation): 63 nM | EC50 ([21]; read-out: 6h caspase EC50, HEL9217, single agent): > 333 nM | EC50 ([21]; read-out: AZD5991 6h EC50, HEL92.1.7 (AML), caspase 3/7 activation): 564 nM
